The source of these data is patent publication US10029996B2, “Class of cyano-substituted asymmetric cyanine dyes, synthesizing method and application thereof” (DALIAN UNIVERSITY OF TECHNOLOGY, priority 2013, dated 2018).

Each structure is given as a SMILES string.

Series [1] is described as follows: Photofading under iodine-tungsten lamp irradiation in Tris-HCl buffer. The series is classed as physicochemical. To be noted: 5×10^−6 M in Tris-HCl 10 mM pH 7.4; 500 W iodine-tungsten lamp, 20 cm; after 6 h of radiation. How it is done: 5×10^−6M solutions of compounds C, D, E and reference compound M1 in Tris-HCl (10 mM, pH=7.4, same below) buffer were be sealed into the cuvettes respectively. To absorb short wavelength light (<400 nm), a trap of glass containing 50 g/L NaNO2 was set up between the cells and the lamp. In the other hand, NaNO2 solution can be used as a cold trap to keep the sample at room temperature. After the absorption of samples were monitored, solutions of the samples were irradiated with a 500 W iodine-tungsten lamp. The distance between the cells and the lamp was 20 cm. The irreversible bleaching of the dyes at the absorption peak was monitored as a function of time at 1 hour intervals. The equipment used is a UV-Vis spectrophotometer Lambda 8453.

Series [2] concerns CT DNA. Nature of the series: Absorption and fluorescence emission spectra in the absence and presence of DNA in buffer. The series is classed as physicochemical. To be noted: 2 μM in Tris-HCl buffer, absence and presence of saturated CT DNA; for maximum emission wavelength: excitation 550 nm. Here is the method: 2 μM solutions of compounds C, D, and E in Tris-HCl (10 mM, pH=7.4, same below) buffer were be added into the cuvettes and determined its absorption respectively. The exited wavelength of the fluorescence spectra was 550 nm for all compounds. A saturated amount of CT DNA was added into the above solution, then the solution was determined its absorption respectively. The exited wavelength of the fluorescence spectra was 550 nm for all compounds. The equipments used are a UV-Vis spectrophotometer (Hp8453) and a spectrofluorophotometer (PTI-700). FIGS. 2, 3, and 4 are the absorption and fluorescence emission spectra of compounds C, D, and E in the absence and presence of DNA respectively in buffer solution respectively. […] Therefore, in confocal fluorescence image tests of compounds, the exited wavelength is selected 559 nm and the collected emission wavelength was 575-625 nm.

In series [3] the test system is MCF7 cells. Nature of the series: Colocalization fluorescence imaging with commercial nucleic acid stain SYTO9. To be noted: compound E 2.0 μM 45 min after SYTO9 3.0 μM 45 min; λex=559 nm, λem=575-625 nm. The series is classed as cell-based, human. How it is done: The cells were cultured as shown example 10, were first cultured with 3.0 μM of available commercial nucleic acid stain SYTO9 for 45 min, and then washed with PBS three times. Cells were then incubated with compound E (2.0 μM) for 45 min, and then washed with PBS three times. After replacement of DEME medium, cells were imaged using confocal fluorescence microscope.
FIG. 6a is the fluorescence image of SYTO 9 (λex=488 nm, λem=500 nm to 550 nm) and FIG. 6b is the fluorescence image of compound E (λex=559 nm, λem=575 nm to 625 nm). […] The equipment used is an Olympus FV1000 confocal laser scanning microscope.

Series [4] concerns CT DNA. The series is described as follows: Fluorescence quantum yield in the presence of DNA. To be noted: 1 μM in Tris-HCl buffer, saturated DNA; Rhodamine B as standard; mean of triplicate. The series is classed as physicochemical. Here is the method: A saturated amount of CT DNA was added into the 1 μM compound C solution in Tris-HCl buffer to keep a maximum absorbance less than 0.1 as determined by a UV-Vis Spectrophotometer. Fluorescence intensities are measured at selected excitation wavelengths of 545 nm, 550 nm and 555 nm, respectively. For each compound, the determination is made in triplicate, the fluorescence quantum yield of each determination is calculated, and the mean value is taken. Using Rhodamine B as the standard (ΦF=0.97, methanol, 15° C.), the calculated fluorescence quantum yields in buffer solution of compound C in the presence of DNA is 0.73. The equipments used are a UV-Vis spectrophotometer (Hp8453) and a spectrofluorophotometer (PTI-700).
A saturated amount of DNA was added into the 1 μM reference compound M1 solution in Tris-HCl buffer to keep a maximum absorbance less than 0.1 as determined by a UV-Vis Spectrophotometer. Fluorescence intensities are measured at selected excitation wavelengths of 585 nm, 590 nm and 595 nm, respectively. For each compound, the determination is made in triplicate, the fluorescence quantum yield of each determination is calculated, and the mean value is taken. Using Rhodamine B as the standard (ΦF=0.97, methanol, 15° C.), the calculated fluorescence quantum yields in buffer solution of reference compound M1 in the presence of DNA is 0.16. […]

Another series has as its system living cells. Nature of the series: MTT cytotoxicity assay in living cells. The series is classed as cell-based. To be noted: 6 h, serial concentrations 0, 1, 3, 5 μM. Here is the method: The Compounds C, D, E and reference compound M1 at serial concentrations (0, 1, 3, and 5 μM) were added to cells counted in a confocal microscope dish for 6 h. Then MTT tetrazolium solution (100 μL of 0.5 mg/ml in PBS) was added to each well, and the cells further incubated for 2 h. Excess MTT tetrazolium solution was then carefully removed and the colored formazan was dissolved in dimethyl sulfoxide (DMSO). The absorbance was measured at 490 nm using a microplate reader to measure the toxicity of compound.

Series [5] relates to CT DNA. To be noted: methanol, 15° C.; cited from earlier work.
Series [6] relates to MCF7 cells. The series is described as follows: Fluorescence imaging of live cells stained with dye. The series is classed as cell-based, human. To be noted: 45 min, compound D 2 μM, M1 3 μM, confocal microscopy. Here is the method: MCF7 cells (human breast adenocarcinoma cell line) were cultured in DEME medium supplemented with 10% fetal bovine serum at 37° C. in an atmosphere containing 5% CO2 for 24 h. For live cell imaging, compound D (2 μM) or reference compound M1 (3 μM) was added to cells for 45 min and washed with PBS (phosphate-buffered saline) three times. After replacement of the medium, cells were imaged using a confocal fluorescence microscope. […] The confocal laser scanning microscope is Olympus FV1000.

With `C=CCCN1/C(=C(C#N)\C=C\c2cc[n+](CC)c3cc(OC)ccc23)Sc2ccccc21.[I-]` [Compound E], the “optical density remaining after radiation (photostability)” value (“optical density remaining” below) in series [1] worked out at 90%. Further, in the series on CT DNA [2], the maximum absorption wavelength entry is reported as “about 545 nm” and the maximum emission wavelength result is on record as “about 610 nm”. Also, in the series with MCF7 cells [3], the “subcellular regions stained (colocalization with SYTO9)” value was “nucleus and nucleolus”.

Regarding `CC[n+]1ccc(/C=C/C(C#N)=C2/Sc3ccccc3N2C)c2ccccc21.[I-]` [Compound C], the “optical density remaining” value in series [1] amounted to 90%. Further, in the series on CT DNA [2], the maximum absorption wavelength entry is listed as “about 545 nm” and the maximum emission wavelength result is reported as “about 610 nm”. Further, the “fluorescence quantum yield in the presence of DNA” value with CT DNA [4] stood at 0.73. In the series with living cells, the “cytotoxicity in high concentration relative to M1” value is recorded as “less cytotoxic than reference compound M1” and the “cytotoxicity in low concentrations” value is “low cytotoxicity”.

In the case of `CCN(CC)c1ccc2c(-c3ccccc3C(=O)O)c3ccc(=[N+](CC)CC)cc-3oc2c1.[Cl-]` [Rhodamine B], the “fluorescence quantum yield of standard (ΦF)” value in the series on CT DNA [5] is 0.97.

Turning to `CN1/C(=C(C#N)\C=C\c2cc[n+](CCO)c3ccccc23)Sc2cc(Cl)ccc21.Cl` [Compound D], the “optical density remaining” value in series [1] was found to be 90%. In the series with CT DNA [2], the maximum absorption wavelength result is “about 545 nm” and the maximum emission wavelength entry is on record as “about 610 nm”. In the series on MCF7 cells [6], the “staining pattern in live cells” value was “clear nucleolar staining as well as faint nucleus staining”. Further, in the series on living cells, the “cytotoxicity in high concentration relative to M1” value is “less cytotoxic than reference compound M1” and the “cytotoxicity in low concentrations” value is reported as “low cytotoxicity”.

For the compound `CC[n+]1ccc(/C=C/C=C2/Sc3ccccc3N2C)c2ccccc21.[I-]` [Compound M1, reference compound], the “optical density remaining” value in series [1] is given as roughly 0%. Moreover, in the series on CT DNA [4], the “fluorescence quantum yield in the presence of DNA” value is reported as 0.16. Besides, the “staining pattern in live cells” value in the series with MCF7 cells [6] is “clear nucleolar staining as well as faint nucleus staining”. In the series with living cells, the “cytotoxicity in low concentrations” value was “low cytotoxicity”.
